From paper PMC3694426 (Clinical cancer research : an official journal of the …, 2013)
Entries after “also recorded” stand apart in the source; their conditions may differ.

How the values were obtained:
[1] = system: pancreatic tumor model with elevated Shh (sonic hedgehog) expression; details: stated in introduction; cited from earlier work
[2] = phase I dose escalation: DLTs, MTD and treatment-emergent adverse events; format: in vivo, human; details: for patients who experienced DLTs: modified DLT criteria

Compound: CC1=C2C[C@H]3[C@@H](CC[C@@H]4C[C@H](NS(C)(=O)=O)CC[C@@]43C)[C@@H]2CC[C@@]2(C1)O[C@@H]1C[C@H](C)CN[C@H]1[C@H]2C [IPI-926]
- Shh signaling in surrounding stromal tissue (Gli1 mRNA) [1]: inhibited Shh signaling
- tumor growth [1]: slows tumor growth
- DLTs per total patients treated ([2]; 20 mg QD): 0/1
- DLTs per total patients treated ([2]; 30 mg QD): 0/1
- DLTs per total patients treated ([2]; 40 mg QD): 0/1
- DLTs per total patients treated ([2]; 60 mg QD): 0/1
- DLTs per total patients treated ([2]; 90 mg QD): 0/1
- ALT elevation (lab), treatment-emergent adverse event ([2]; 130 mg (n = 56), Grade 1–2): 40 (71) n (%)
- AST elevation (lab), treatment-emergent adverse event ([2]; 130 mg (n = 56), Grade 1–2): 41 (73) n (%)
- Alopecia, treatment-emergent adverse event ([2]; 130 mg (n = 56), Grade 1–2): 17 (30) n (%)
- Decreased appetite, treatment-emergent adverse event ([2]; 130 mg (n = 56), Grade 1–2): 12 (21) n (%)
- Diarrhea, treatment-emergent adverse event ([2]; 130 mg (n = 56), Grade 1–2): 15 (27) n (%)
- Dysgeusia, treatment-emergent adverse event ([2]; 130 mg (n = 56), Grade 1–2): 6 (11) n (%)
- Fatigue, treatment-emergent adverse event ([2]; 130 mg (n = 56), Grade 1–2): 29 (52) n (%)
- Muscle spasms, treatment-emergent adverse event ([2]; 130 mg (n = 56), Grade 1–2): 11 (20) n (%)
- Nausea, treatment-emergent adverse event ([2]; 130 mg (n = 56), Grade 1–2): 23 (41) n (%)
- Thrombocytopenia (lab), treatment-emergent adverse event ([2]; 130 mg (n = 56), Grade 1–2): 12 (21) n (%)
- Vomiting, treatment-emergent adverse event ([2]; 130 mg (n = 56), Grade 1–2): 11 (20) n (%)
- ALT elevation (lab), treatment-emergent adverse event ([2]; 130 mg (n = 56), Grade ≥3): 4 (7) n (%)
- AST elevation (lab), treatment-emergent adverse event ([2]; 130 mg (n = 56), Grade ≥3): 2 (4) n (%)
- Alopecia, treatment-emergent adverse event ([2]; 130 mg (n = 56), Grade ≥3): 0 (0) n (%)
- Decreased appetite, treatment-emergent adverse event ([2]; 130 mg (n = 56), Grade ≥3): 0 (0) n (%)
- Diarrhea, treatment-emergent adverse event ([2]; 130 mg (n = 56), Grade ≥3): 0 (0) n (%)
- Dysgeusia, treatment-emergent adverse event ([2]; 130 mg (n = 56), Grade ≥3): 1 (2) n (%)
- Fatigue, treatment-emergent adverse event ([2]; 130 mg (n = 56), Grade ≥3): 3 (5) n (%)
- Hemoglobin (lab), treatment-emergent adverse event ([2]; 130 mg (n = 56), Grade ≥3): 2 (4) n (%)
- Muscle spasms, treatment-emergent adverse event ([2]; 130 mg (n = 56), Grade ≥3): 1 (2) n (%)
- Nausea, treatment-emergent adverse event ([2]; 130 mg (n = 56), Grade ≥3): 0 (0) n (%)
- Thrombocytopenia (lab), treatment-emergent adverse event ([2]; 130 mg (n = 56), Grade ≥3): 3 (5) n (%)
- Vomiting, treatment-emergent adverse event ([2]; 130 mg (n = 56), Grade ≥3): 0 (0) n (%)
- DLTs per total patients treated ([2]; 130 mg QD): 0/56
- ALT elevation (lab), treatment-emergent adverse event ([2]; 160 mg (n = 18), Grade 1–2): 10 (55) n (%)
- AST elevation (lab), treatment-emergent adverse event ([2]; 160 mg (n = 18), Grade 1–2): 14 (78) n (%)
- Alopecia, treatment-emergent adverse event ([2]; 160 mg (n = 18), Grade 1–2): 4 (22) n (%)
- Decreased appetite, treatment-emergent adverse event ([2]; 160 mg (n = 18), Grade 1–2): 5 (28) n (%)
- Diarrhea, treatment-emergent adverse event ([2]; 160 mg (n = 18), Grade 1–2): 2 (11) n (%)
- Dysgeusia, treatment-emergent adverse event ([2]; 160 mg (n = 18), Grade 1–2): 4 (22) n (%)
- Fatigue, treatment-emergent adverse event ([2]; 160 mg (n = 18), Grade 1–2): 8 (44) n (%)
- Hemoglobin (lab), treatment-emergent adverse event ([2]; 160 mg (n = 18), Grade 1–2): 12 (66) n (%)
- Muscle spasms, treatment-emergent adverse event ([2]; 160 mg (n = 18), Grade 1–2): 6 (33) n (%)
- Nausea, treatment-emergent adverse event ([2]; 160 mg (n = 18), Grade 1–2): 6 (33) n (%)
- Thrombocytopenia (lab), treatment-emergent adverse event ([2]; 160 mg (n = 18), Grade 1–2): 4 (22) n (%)
- Vomiting, treatment-emergent adverse event ([2]; 160 mg (n = 18), Grade 1–2): 6 (33) n (%)
- ALT elevation (lab), treatment-emergent adverse event ([2]; 160 mg (n = 18), Grade ≥3): 5 (28) n (%)
- AST elevation (lab), treatment-emergent adverse event ([2]; 160 mg (n = 18), Grade ≥3): 2 (11) n (%)
- Alopecia, treatment-emergent adverse event ([2]; 160 mg (n = 18), Grade ≥3): 0 (0) n (%)
- Decreased appetite, treatment-emergent adverse event ([2]; 160 mg (n = 18), Grade ≥3): 0 (0) n (%)
- Diarrhea, treatment-emergent adverse event ([2]; 160 mg (n = 18), Grade ≥3): 1 (6) n (%)
- Dysgeusia, treatment-emergent adverse event ([2]; 160 mg (n = 18), Grade ≥3): 1 (6) n (%)
- Fatigue, treatment-emergent adverse event ([2]; 160 mg (n = 18), Grade ≥3): 3 (17) n (%)
- Hemoglobin (lab), treatment-emergent adverse event ([2]; 160 mg (n = 18), Grade ≥3): 1 (6) n (%)
- Muscle spasms, treatment-emergent adverse event ([2]; 160 mg (n = 18), Grade ≥3): 0 (0) n (%)
- Nausea, treatment-emergent adverse event ([2]; 160 mg (n = 18), Grade ≥3): 0 (0) n (%)
- Thrombocytopenia (lab), treatment-emergent adverse event ([2]; 160 mg (n = 18), Grade ≥3): 0 (0) n (%)
- Vomiting, treatment-emergent adverse event ([2]; 160 mg (n = 18), Grade ≥3): 0 (0) n (%)
- DLT description ([2]; 160 mg QD): Grade 3 AST and ALT elevation
- patients with DLT (grade 3 ALT and grade 3 AST elevation) ([2]; 160 mg QD): 1 of 6
- DLTs per total patients treated ([2]; 160 mg QD (dose selected for phase II)): 1/18
- patients with ≥grade 3 ALT elevations ([2]; 160 mg QD, the MTD): 28%
- patients with ≥grade 3 AST elevations ([2]; 160 mg QD, the MTD): 11%
- DLT description ([2]; 180 mg QD): Grade 3 fatigue and anorexia; also recorded: Grade 3 AST and ALT elevation
- DLTs per total patients treated ([2]; 180 mg QD (intolerable dose level)): 2/5
- patients who experienced DLTs ([2]; 180 mg QD): 2 patients
- DLT description ([2]; 200 mg QD): Grade 3 AST elevation; also recorded: Grade 3 ALT elevation
- patients with adverse events that met DLT criteria ([2]; 200 mg QD): 2 patients
- DLTs per total patients treated ([2]; 200 mg QD (intolerable dose level)): 2/3
- DLT description ([2]; 210 mg QD): Grade 3 AST and ALT elevation; also recorded: Grade 2 ALT elevation and hyperbilirubinemia
- DLTs per total patients treated ([2]; 210 mg QD (intolerable dose level)): 2/7
- patients who experienced DLTs ([2]; 210 mg QD): 2 patients
